# Assay results published in patent US20060122105A1, “Method of improing the growth performance of an animal” (priority 2001, published 2006).
# How the values were obtained:
# [1] = test system: Actinobacillus pleuropneumoniae (App); test: App challenge of pigs, prophylactic recombinant IL-1ra, plasmid IL-1ra or flunix (Example 5); assay type: in vivo; set-up: improvements in weight gain over saline controls / reduction in weight gain compared to saline controls / reduction in clinical symptoms compared to saline / reduction of pleurisy compared to saline treated controls / reduction in affected lung mass compared to saline treated controls: concentration or dose not given beside the values
# Description: Male pigs, with a mean starting weight of 52 kg, were allocated to 5 treatment groups as outlined in Table 6. Pigs were housed in group pens, with each pen containing a replicate from each of the treatment groups. The starting weights of each treatment group and each pen were equal prior to the start of the trial. Pigs were provided with pelleted feed and water ad libitum.
# Recombinant IL-1ra and saline-were administered as 1 ml doses, given subcutaneously behind the ear. Plasmids were administered in 1 ml doses, given intramuscularly in the hind-leg. Flunix was administered as a 2 ml dose according to the manufacturer's instructions, and delivered intramuscularly in the neck. The timetable of administration is outlined in Table 6 below.
# Prior to challenge, pigs were treated with recombinant cytokines, flunix or plasmids as described Table 7. Pigs were anaesthetised and infected intratracheally with 7.5×10^5 pfu App on day 0.
# Blood was sampled from pigs by venipuncture at 0, 24 h and 14 days post-challenge. Blood was assayed for immunological parameters as previously described. Pigs were weighed weekly from delivery of plasmids and for 2 weeks after challenge.
# At the conclusion of the trial, pigs were euthanased and the lungs removed for post-mortem examination. Lungs were scored for pleurisy from 0-5 (FIGS. 39 and 40) and the degree of pleuropneumonia was determined by weighing affected lung and expressed as a percentage of total lung weight (FIGS. 41 and 42). Pigs treated with flunix and IL-1ra had less pleurisy than the saline controls (FIG. 39).
# [2] = test system: Actinobacillus pleuropneumoniae (App); test: as above; assay type: in vivo; details: day 13 after challenge compared with pre-challenge levels; FIG. 35
compound,measurement,setting,value
"Cc1c(Nc2ncccc2C(=O)O)cccc1C(F)(F)F [flunix, reference compound]",reduction in weight gain compared to saline controls,"[1]; 14d App challenge, FIG. 33",84.6%
same,production of IL-6 (mRNA in peripheral blood),"[1]; after App challenge, compared with saline treated controls, FIG. 36",reduce the production of IL-6 only
same,growth during the week of challenge,"[1]; first week after App challenge, FIG. 30",weight loss
same,reduction in affected lung mass compared to saline treated controls,"[1]; percentage of lung affected by App lesions, FIG. 42",64.1%
same,reduction of pleurisy compared to saline treated controls,"[1]; pleurisy score 0-5 at necropsy, FIG. 40",55.6%
same,levels of TNFα protein in the serum,[2],failed to inhibit the production of TNFα
